Data taken from patent publication US20040029968A1, “Nateglinide-containing hydrophilic pharmaceutical preparation” (AJINOMOTO CO. INC, priority 2000, published 2004).

Experiment: Contact angle of the preparation surface to water
Format: physicochemical
Settings: flat, smooth tablets prepared from the crystals; water dropped onto the surface
Procedure: The term “contact angle to water” as employed herein means an angle wherein drops of water to be deposited to the surface of preparation compositions such as tablets and the like contact with said surface, which can be used as an indication of hydrophilic nature. For example, such contact angle is measured by forming 1 μL of droplet of pure water (MILLI-Q; MILLIPORE Co.) on the tip of needle (SNSO 52/026; made from stainless steel, inner diameter of 0.26 mm, outer diameter of 0.52 mm; HAMILTON Co.) and evaluating the contact angle at 60 m sec. after the droplet arrives onto the surface of tablet, using a contact angle measuring device (OCA-15 type; Data Physics Co.). When the surface of tablet has curvature, such contact angle is measured by correcting this curvature to straight line at the time when analysis is conducted. Usually, the contact angle is usually measured at room temperature.
As for preparations of which forms are not tablets, contact angles can be measured after molding powders, granules, semisolids and the like contained in such preparation. For example, in the case of capsules, the contact angle thereof can be determined by removing the contents of capsules and molding 200 mg of the contents into a tablet having diameter of 8 mm and thickness of 3.50 mm and having flat and smooth surface.

contact angle of the surface of tablets to water [degree]	Structure (SMILES)
85	CC(C)[C@H]1CC[C@H](C(=O)N[C@H](Cc2ccccc2)C(=O)O)CC1 [nateglinide H-type crystals, N-(trans-4-isopropylcyclohexanecarbonyl)-D-phenylalanine]
95	CC(C)[C@H]1CC[C@H](C(=O)N[C@H](Cc2ccccc2)C(=O)O)CC1 [nateglinide B-type crystals, N-(trans-4-isopropylcyclohexanecarbonyl)-D-phenylalanine]
